≈ marks a conversion by molar mass, not a printed value. Positions of bridges follow the written chain, without caps; N, C: chain ends. Non-standard residues stand in square brackets, D forms with d. Residues, ends and D or L forms follow the SMILES beside them. *: point of attachment. Decanoyl(3R-OH) = CCCCCCC[C@@H](O)CC(=O)*; dDab = NCC[C@@H](N)C(=O)O; Orn = NCCC[C@H](N)C(=O)O; Dab = NCC[C@H](N)C(=O)O
Experiments:
A. baumannii GN_093 PmxR = conditions: GN 093 PmxR
Outline: (§1)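 Mid-log cultures grown in Mueller Hinton broth at 37° C were tested by 2-fold broth microdilution at 5×10^5 CFU/mL final. Compounds were dissolved in water and tested over a final range of 32 to 0.015 μg/mL.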

P. aeruginosa ATCC 27853 = conditions: ATCC 27853
Outline: as §1

[1] = system: S. aureus ATCC 25923, MSSA; conditions: ATCC 25923
Outline: as §1

[2] = system: P. aeruginosa GN_043, PmxR; conditions: polymyxin-resistant
Outline: as §1

[3] = system: K. pneumoniae ATCC BAA-2146, NDM-1 pos; conditions: ATCC BAA-2146
Outline: as §1

K. pneumoniae ATCC 13883 = conditions: ATCC 13883
Outline: as §1

[4] = system: P. aeruginosa GN_105, PmxR; conditions: GN 105, PmxR
Outline: as §1

[5] = system: K. pneumoniae GN_106, PmxR; conditions: GN 106, PmxR
Outline: as §1

[6] = system: K. pneumoniae GN_102 PmxR; conditions: GN 102 PmxR
Outline: as §1

E. coli ATCC 25922 = conditions: ATCC 25922
Outline: as §1

[7] = system: K. pneumoniae ATCC 700603, MDR; conditions: ATCC 700603
Outline: as §1

A. baumannii ATCC 19606 = conditions: ATCC 19606
Outline: as §1

[8] = In vitro nephrotoxicity, GGT release from primary human kidney cells; assay type: cell-based; conditions: pH 7.4
Source text: (§2) hPT cells were derived from whole human kidneys procured by the International Institute for the Advancement of Medicine (Edison, N.J., USA). All tissue was scored by a pathologist as normal (i.e., derived from non-cancerous, non-diseased tissue). Cell isolation procedures were based on those originally described by Todd et al. (1996) and modified (Cummings and Lash, 2000; Cummings et al., 2000) with use of sterile conditions (i.e., all instruments and glassware were autoclaved and all buffers were filtered through a 0.2-μm pore-size filter). Renal cortex and outer stripe were cut into slices, washed with sterile PBS, minced, and the pieces were placed in a trypsinization flask filled with 300 ml of sterile, filtered Hanks' buffer, containing 25 mM NaHCO3, 25 mM HEPES, pH 7.4, 0.5 mM EGTA, 0.2% (w/v) bovine serum albumin, 50 μg/ml gentamicin, 1.3 mg/mL collagenase, and 0.59 mg/ml CaCl2), which was filtered prior to use. Whole kidneys were perfused with Wisconsin medium and kept on ice until they arrived at the laboratory, which was usually within 24 h of removal from the donor.
(§3) All buffers were continuously bubbled with 95% O2/5% CO2 and were maintained at 37° C. Minced cortical pieces from whole kidneys were subjected to collagenase digestion for 60 min, after which the supernatant was filtered through a 70-μm mesh filter to remove tissue fragments, centrifuged at 150×g for 7 min, and the pellet resuspended in Dulbecco's Modified Eagle's Medium: Ham's F12 Medium (DMEM/F12; 1/1). Approximately 5 to 7×10^6 cells were obtained per 1 g of human kidney cortical tissue.
(§4) hPT cells were resuspended in 2 mL of DMEM/F12 and diluted to 500 mL with cell culture medium, which was serum-free and hormonally-defined. Composition of this supplemented medium was based on earlier work establishing optimal conditions for primary culture of rat PT cells (Lash et al., 1995). Basal medium was a 1:1 mixture of DMEM/F12. […] Cells were seeded in a volume of 0.5 ml at a density of 50-100 μg protein per cm^2 (0.5-1.0×10^6 cells/ml) on 24-well plates. Cultures were grown at 37° C. in a humidified incubator under an atmosphere of 95% air/5% CO2 at pH 7.4. Cultures were grown to approximately 80%-90% confluence (generally 5-6 days) prior to experiments. Cells were harvested by either scraping the flasks with a Teflon scraper or by brief incubation with Cellstripper (Cellgro, Herndon, Va., USA) (in Ca^2+- and Mg^2+-free Hanks' buffer).
Release of gamm-glutanyltransferase was assessed according to Orlowski, M., Meister, A. 1963. γ-Glutamyl-p-nitroanilide: A new convenient substrate for determination and study of L- and D-γ-glutamyltranspeptidase activities (Biochim. Biophys. Acta 73: 679-681.)
A 2.5 mM substrate Solution was prepared from 67 mg γ-glutamyl-p-nitroanilide+264 mg glycylglycine in 100 mL of 0.05 M Tris, pH 8.2 (50 mM Tris, pH 8.2: 605 mg Tris/HCl per 100 mL).
For the assay in 96-well plates, 6-μL of sample and 0.3 mL substrate solution were added to each well. The absorbance was measured at 410 nm for the appearance of product, p-nitroanilide (molar extinction=8800 M^−1 cm^−1).

Neisseria gonorrhoeae = test: MIC determination, Neisseria gonorrhoeae; assay type: cell-based; conditions: for MIC N. gonorrhoeae FA19 ATCC BAA-1838: strain FA19 ATCC BAA-1838; for MIC N. gonorrhoeae F89: strain F89; for MIC N. gonorrhoeae FA1090 A25 ATCC 700825: strain FA1090 A25 ATCC 700825; for MIC N. gonorrhoeae H041: strain H041
Outline: as §1

[9] = In vitro nephrotoxicity, LDH release from primary human kidney cells; assay type: cell-based; conditions: pH 7.4
Source text: as §2, §3, §4

SMILES	MIC A. baumannii GN_093 PmxR (A. baumannii GN_093 PmxR) [µg/mL]	MIC P. aeruginosa ATCC 27853 (P. aeruginosa ATCC 27853) [µg/mL]	MIC S. aureus ATCC 25923, MSSA [1] [µg/mL]	MIC P. aeruginosa GN_043, PmxR [2] [µg/mL]	MIC K. pneumoniae ATCC BAA-2146, NDM-1 pos [3] [µg/mL]	MIC K. pneumoniae ATCC 13883 (K. pneumoniae ATCC 13883) [µg/mL]	MIC P. aeruginosa GN_105, PmxR [4] [µg/mL]	MIC K. pneumoniae GN_106, PmxR [5] [µg/mL]	MIC K. pneumoniae GN_102 PmxR [6] [µg/mL]	MIC E. coli ATCC 25922 (E. coli ATCC 25922) [µg/mL]	MIC K. pneumoniae ATCC 700603, MDR [7] [µg/mL]	MIC A. baumannii ATCC 19606 (A. baumannii ATCC 19606) [µg/mL]	CC50 [8] [µg/mL]	MIC N. gonorrhoeae FA19 ATCC BAA-1838 (Neisseria gonorrhoeae) [µg/mL]	CC50 [9] [µg/mL]	MIC N. gonorrhoeae F89 (Neisseria gonorrhoeae) [µg/mL]	MIC N. gonorrhoeae FA1090 A25 ATCC 700825 (Neisseria gonorrhoeae) [µg/mL]	MIC N. gonorrhoeae H041 (Neisseria gonorrhoeae) [µg/mL]	also measured
CCCCCCC[C@@H](O)CC(=O)N[C@H](CCN)C(=O)N[C@H]1CCNC(=O)[C@H](CC(C)C)NC(=O)[C@H](CCCN)NC(=O)[C@H](CCN)NC(=O)[C@H](CC(C)C)NC(=O)[C@@H](Cc2ccccc2)NC(=O)[C@H](CCN)NC1=O [compound 988, 3(R)OH-nC9CO-D-Dab-cyc[L-Dab-L-Dab-D-Phe-L-Leu-L-Dab-L-Orn-L-Leu]] ({Decanoyl(3R-OH)}-[dDab][Dab][Dab][dF]L[Dab][Orn]L; lactam 2-C)	8 (≈ 7.56 µM)	2 (≈ 1.89 µM)	16 (≈ 15.1 µM)	2 (≈ 1.89 µM)	2 (≈ 1.89 µM)	2 (≈ 1.89 µM)	2 (≈ 1.89 µM)	2 (≈ 1.89 µM)	2 (≈ 1.89 µM)	2 (≈ 1.89 µM)	2 (≈ 1.89 µM)	4 (≈ 3.78 µM)	> 128	0.78 (≈ 0.737 µM)	118 (≈ 111 µM)				
CCCCCCC[C@@H](O)CC(=O)N[C@H](CCN)C(=O)N[C@H]1CCNC(=O)[C@H](CC(C)C)NC(=O)[C@H](CCN)NC(=O)[C@H](CCCN)NC(=O)[C@H](CC(C)C)NC(=O)[C@@H](Cc2ccccc2)NC(=O)[C@H](CCN)NC1=O [compound 991, 3(R)OH-nC9CO-D-Dab-cyc[L-Dab-L-Dab-D-Phe-L-Leu-L-Orn-L-Dab-L-Leu]] ({Decanoyl(3R-OH)}-[dDab][Dab][Dab][dF]L[Orn][Dab]L; lactam 2-C)													> 128	0.39 (≈ 0.368 µM)	107 (≈ 101 µM)	1.3 (≈ 1.23 µM)	1.56 (≈ 1.47 µM)	2.08 (≈ 1.97 µM)	MIC, A. baumannii Cl Ptyela 10073 4512:2, PmxR (A. baumannii GN_093 PmxR): 8 µg/mL (≈ 7.56 µM); MIC, P. aeruginosa ATCC 27853 (P. aeruginosa ATCC 27853): 2 µg/mL (≈ 1.89 µM); MIC, S. Aureus ATCC 25923, MSSA [1]: 8 µg/mL (≈ 7.56 µM); MIC, P. aeruginosa FADDI-PA070, PmxR ([2]; Table 5): 2 µg/mL (≈ 1.89 µM); MIC, K. pneumoniae ATCC BAA-2146, NDM-1 pos [3]: 4 µg/mL (≈ 3.78 µM); MIC, K. pneumoniae ATCC 13883 (K. pneumoniae ATCC 13883): 4 µg/mL (≈ 3.78 µM); MIC, P. aeruginosa PA9704, PmxR [4]: 1 µg/mL (≈ 0.945 µM); MIC, K. pneumoniae Cl 138-16347-20362, PmxR [5]: 2 µg/mL (≈ 1.89 µM); MIC, K. pneumoniae Cl Koprana 10065 0661:1, PmxR [6]: 1 µg/mL (≈ 0.945 µM); MIC, E. coli ATCC 25922 (E. coli ATCC 25922): 4 µg/mL (≈ 3.78 µM); MIC, K. pneumoniae ATCC 700603, MDR [7]: 4 µg/mL (≈ 3.78 µM); MIC, A. baumannii ATCC 19606 (A. baumannii ATCC 19606): 4 µg/mL (≈ 3.78 µM)
CCCCCCC[C@@H](O)CC(=O)N[C@H](CCN)C(=O)N[C@H]1CCNC(=O)[C@H](Cc2c[nH]c3ccccc23)NC(=O)[C@H](CCN)NC(=O)[C@H](CCN)NC(=O)[C@H](CC(C)C)NC(=O)[C@@H](Cc2ccccc2)NC(=O)[C@H](CCN)NC1=O [compound 6509, 3(R)OH-nC9CO-D-Dab-cyc[L-Dab-L-Dab-D-Phe-L-Leu-L-Dab-L-Dab-L-Trp]] ({Decanoyl(3R-OH)}-[dDab][Dab][Dab][dF]L[Dab][Dab]W; lactam 2-C)	8 (≈ 7.16 µM)	2 (≈ 1.79 µM)	4 (≈ 3.58 µM)	1 (≈ 0.895 µM)	4 (≈ 3.58 µM)	4 (≈ 3.58 µM)	1 (≈ 0.895 µM)	4 (≈ 3.58 µM)	4 (≈ 3.58 µM)	4 (≈ 3.58 µM)	2 (≈ 1.79 µM)	8 (≈ 7.16 µM)	> 128	0.78 (≈ 0.698 µM)	> 128	1.04 (≈ 0.931 µM)	0.65 (≈ 0.582 µM)	1.69 (≈ 1.51 µM)	

— patent US11279733B2, “Peptide antibiotics” (priority 2017, dated 2022)
